Values after ≈ are worked out from the molar mass of the structure shown. Where a name gives a salt, the structure may show the parent alone. Read-outs that look alike come from different tables or passages of the source.
Legend:
Format in all cases: cell-based
[1] = test system: Propionibacterium acnes NCTC 737; experiment: Minimum Inhibitory Concentration (MIC) assay, broth microdilution; conditions: P. acnes NCTC 737, Wilkins-Chalgren broth pH 6.0, anaerobic, 37° C., 72 hours
Description: (§1) The test micro-organism represented the cutaneous propionibacteria. […] The propionibacteria are clinically significant due to their involvement in acne. This is a very common, complex and multi-factorial skin disease in which P. acnes and other Propionibacterium spp. […] They are also opportunistic pathogens in compromised hosts.
(§2) The propionibacteria were cultured and maintained on Wilkins-Chalgren Anaerobe Medium (agar and broth) at pH 6.0; all cultures were incubated anaerobically at 37° C. for 72 hours.
This is a standard international method for quantitatively assessing the antimicrobial activity of a compound in a liquid medium. […] The culture media were as described above.
The wells were inoculated with a liquid suspension of freshly grown micro-organism and incubated under the conditions described above. After incubation, the microtitre plate was examined visually (with the aid of a light box) for cloudiness in each well, which would indicate microbial growth. The MIC value was recorded as the lowest concentration of test compound required to inhibit microbial growth, ie the lowest concentration for which the liquid in the well remained clear.
The assays included both negative (culture medium with no micro-organisms) and positive (culture medium plus diluting solvent plus micro-organism) controls.
(§3) MIC, MBC and DDA assays, as described above, were carried out using as the test compound sodium n-tetradecyl sulphate (STS, ex Sigma Aldrich, UK), dissolved in distilled water. All the experiments were conducted in triplicate. For the DDA experiments, 200 μg of the test compound was loaded onto each disc.
(§4) The MIC/MBC experiments were conducted in triplicate, with the exception of those for SDS and ADS which were conducted in duplicate. The DDAs were performed either in triplicate, in which case standard deviations are quoted in parentheses, or as a single replicate. For the DDA experiments, 200 μg of the test compound was loaded onto each disc.

[2] = test system: Propionibacterium acnes NCTC 737; experiment: Minimum Biocidal (Bactericidal) Concentration (MBC) assay; conditions: P. acnes NCTC 737; for MBC: sub-culture on antibiotic-free agar after MIC assay
Description: as §1, §2
This assay, normally carried out after an MIC assay, determines the minimum concentration of a compound that is lethal to the micro-organism being tested.
These samples were then individually sub-cultured on antibiotic-free agar medium, under the incubation conditions described above. Following incubation they were examined visually for microbial growth.
as §3, §4

[3] = test system: Propionibacterium acnes NCTC 737; experiment: Disc Diffusion Assay (DDA); conditions: P. acnes NCTC 737, 200 μg of test compound per disc; for zone of inhibition at 200 µg/disc: Cutibacterium acnes, NCTC737, read-out: DDA (diameter of zone of inhibition)
Description: as §1, §2
This is an internationally recognised standard method for qualitatively assessing the antimicrobial activity of a compound.
(§5) A sterile paper disc was impregnated with a sample of the test compound in a suitable solvent and 30 minutes allowed for the solvents to evaporate (where possible). The disc was then placed on an agar plate onto which the test micro-organism had been inoculated. The plate was then incubated under the conditions described above, following which it was examined visually for signs of microbial growth. […] The diameter of this zone of ‘inhibition’ was measured using a ProtoCOL™ automated zone sizer (Synbiosis, Cambridge, UK).
as §3, §4

[4] = test system: Propionibacterium acnes NCTC 737; experiment: Supplemented Disc Diffusion Assay (agar with salt or lipid); conditions: P. acnes NCTC 737, 200 μg per disc; for zone of inhibition at 200 µg/disc: Cutibacterium acnes, NCTC737, 72 h
Description: as §1, §2, §5
Performance under these conditions can provide a more reliable indication of activity on topical application.
as §3, §4

[5] = Cutibacterium acnes, NCTC737, read-out: MIC
[6] = Cutibacterium acnes, NCTC737, read-out: MBC
[7] = agar supplemented with sodium chloride (100 mM), read-out: DDA + salt
[8] = agar supplemented with triolein at 1% v/v, read-out: DDA + lipid
[9] = agar supplemented with sodium chloride (100 mM)
[10] = agar supplemented with triolein at 1% v/v

Row | Molecule | MIC [1, 5] | MBC [2, 6] | MIC/MBC ratio [2] | zone of inhibition at 200 µg/disc [3] | zone of inhibition at 200 µg/disc [4, 7] | zone of inhibition at 200 µg/disc [4, 8] | MIC [1] | MBC [2] | DDA (diameter of zone of inhibition) [3] | DDA + salt [4, 9] | DDA + lipid [4, 10]
1 | CCCCCCCCCCCCCS(=O)(=O)O.[Na] [Sodium 1-tridecane sulphonic acid, sodium 1-tridecane sulphonic acid] | 15.6 µg/mL | 31.2 µg/mL | 0.5 | 28.6 mm | 29.3 mm | 27.4 mm | – | – | – | – | –
2 | CCCCCOS(=O)(=O)[O-].[Na+] [Sodium n-pentyl sulphate, sodium n-pentyl sulphate] | > 250 µg/mL | > 250 µg/mL | – | 0 mm | 0 mm | 0 mm | – | – | – | – | –
3 | CCCCCCCS(=O)(=O)[O-].[Na+] [Sodium 1-heptane sulphonate, sodium 1-heptane sulphonate] | > 250 µg/mL | > 250 µg/mL | – | 0 mm | 0 mm | 10.6 mm | – | – | – | – | –
4 | CCCCCCCCCCCCCCCCCCOS(=O)(=O)[O-].[Na+] [Sodium octadecyl sulphate, sodium octadecyl sulphate] | 1.95 µg/mL | 62.5 µg/mL | 0.03 | 9.41 mm | 9.3 mm | 9.92 mm | – | – | – | – | –
5 | CCCCCCCCS(=O)(=O)O.[Na] [Sodium 1-octane sulphonic acid, sodium 1-octane sulphonic acid] | > 250 µg/mL | > 250 µg/mL | – | 0 mm | 0 mm | 0 mm | – | – | – | – | –
6 | triethanolamine lauryl sulphate [Triethanolamine dodecyl sulphate] | – | – | 0.25 | – | – | – | 3.9 µg/mL | 15.6 µg/mL | 30.19 mm | 28.33 mm | 25.53 mm
7 | CCCCS(=O)(=O)[O-].[Na+] [Sodium 1-butane sulphonate, sodium 1-butane sulphonate] | > 250 µg/mL | > 250 µg/mL | – | 0 mm | 0 mm | 0 mm | – | – | – | – | –
8 | CCCCCCCCCCCCCCCC(=O)O [palmitic acid, reference compound] | > 1000 µg/mL | > 1000 µg/mL | – | – | – | – | – | – | – | – | –
9 | CCCCCCCCOS(=O)(=O)[O-].[Na+] [Sodium octyl sulphate, sodium octyl sulphate] | > 250 µg/mL | > 250 µg/mL | – | 0 mm | 0 mm | 0 mm | – | – | – | – | –
10 | CCCCCS(=O)(=O)[O-].[Na+] [Sodium pentane sulphonate, sodium pentane sulphonate] | > 250 µg/mL | > 250 µg/mL | – | 0 mm | 0 mm | 0 mm | – | – | – | – | –
11 | CCCCCCCCCCCCOS(=O)(=O)[O-].[Na+] [Sodium dodecyl sulphate (SDS), sodium dodecyl sulphate] | 31.2 µg/mL | 62.5 µg/mL | 0.5 | 30.7 mm | 28.2 mm | 28.2 mm | – | – | – | – | –
12 | CCCCCCCCCCCCOS(=O)(=O)O.NC(CO)(CO)CO [Trizma ® dodecyl sulphate, Trizma® (2-amino-2-(hydroxymethyl)-1,3-propanediol, alsoknownas ‘Tris’) dodecyl sulphate] | – | – | 0.5 | – | – | – | 31.25 µg/mL | 62.5 µg/mL | 0.00 mm | 0.00 mm | 0.00 mm
13 | CCCCCCCCCCCCCCS(=O)(=O)O.[Na] [Sodium 1-tetradecane sulphonic acid, sodium 1-tetradecane sulphonic acid] | 3.9 µg/mL | 15.6 µg/mL | 0.25 | 11.2 mm | 12.4 mm | 9.61 mm | – | – | – | – | –
14 | CCCCCCCCCS(=O)(=O)[O-].[Na+] [Sodium 1-nonanesulphonate, sodium 1-nonanesulphonate] | > 250 µg/mL | > 250 µg/mL | – | 0 mm | 0 mm | 0 mm | – | – | – | – | –
15 | CCCCCCCCCCCOS(=O)(=O)[O-].[Na+] [Sodium n-undecyl sulphate, sodium n-undecyl sulphate] | 31.2 µg/mL | 62.5 µg/mL | 0.5 | 17.3 mm | 19.9 mm | 17.7 mm | – | – | – | – | –
16 | CCCCC(CC)CCC(CC(C)C)OS(=O)(=O)O (stereo not drawn) [7-ethyl-2-methyl-4-hendecanol sulphate sodium salt] | 31.2 µg/mL | 62.5 µg/mL | 0.5 | 28.5 mm | 30.8 mm | 28.6 mm | – | – | – | – | –
17 | CCCCCCCCCCCCOS(=O)(=O)O.N [Ammonium dodecyl sulphate (ADS), ammonium dodecyl sulphate] | 31.2 µg/mL | 125 µg/mL | 0.25 | 22.2 mm | 24.1 mm | 20.3 mm | – | – | – | – | –
18 | CCCCCCCCCCOS(=O)(=O)[O-].[Na+] [Sodium decyl sulphate, sodium decyl sulphate] | 250 µg/mL | > 250 µg/mL | <1 | 0 mm | 0 mm | 0 mm | – | – | – | – | –
19 | CCCCCCCCCCCC(=O)O [Laurie acid, reference compound] | – | – | – | – | – | – | 15.6 µg/mL (≈ 0.0779 mM) | 31.25 µg/mL (≈ 0.156 mM) | – | – | –
20 | CCCCCCCCCCCCCCCCCCS(=O)(=O)O.[Na] [Sodium 1-octadecane sulphonic acid, sodium 1-octadecane sulphonic acid] | 125 µg/mL | > 250 µg/mL | <0.5 | 0 mm | 0 mm | 0 mm | – | – | – | – | –
21 | CCCS(=O)(=O)[O-].O.[Na+] [Sodium 1-propanesulphate monohydrate, sodium 1-propanesulphate monohydrate] | – | – | – | – | – | – | >250 µg/mL | >250 µg/mL | 0.00 mm | 0.00 mm | 0.00 mm
22 | CCCCCCCCCCCCCCCCS(=O)(=O)[O-].[Na+] [Sodium 1-hexadecane sulphonate, sodium 1-hexadecane sulphonate] | 1.95 µg/mL | 3.9 µg/mL | 0.5 | 0 mm | 0 mm | 0 mm | – | – | – | – | –
23 | CCCCCCCCCCCCCC(=O)O [myristic acid, reference compound] | > 1000 µg/mL | > 1000 µg/mL | – | – | – | – | – | – | – | – | –
24 | CCCCCCCCCCS(=O)(=O)[O-].[Na+] [Sodium 1-decane sulphonate, sodium 1-decane sulphonate] | > 250 µg/mL | > 250 µg/mL | – | 0 mm | 0 mm | 0 mm | – | – | – | – | –
25 | CCCCCCCCCCCCOS(=O)(=O)[O-].[Li+] [Lithium dodecyl sulphate, lithium dodecyl sulphate] | 15.6 µg/mL | 15.6 µg/mL | 1 | 30 mm | 30.5 mm | 30.2 mm | – | – | – | – | –
